Where “and” joins values, the source holds several entries; their conditions need not be identical. Equal entries are not always repeated.

The test system of test [1] is iAMs. Description: EdU proliferation assay in proliferating iAMs. Type of test: cell-based, rat. To be noted: for EdU-positive nuclei compared to the vehicle group (in words): EF-1 32 µM or NRG1 0.1 µM, 24 h; for In vitro EdU-positive cell count: individual replicates. The protocol:
EdU proliferation assay was performed using the Click-iT^TM EdU Cell Proliferation Kit for Imaging (ThermoFisher Scientific, C10337) following the protocol. Proliferating iAMs were seeded at a density of 10^5 cells/well in proliferating medium in 24-well plates and incubated overnight. […] Afterwards, the cell culture media were then replaced with 10 µM EdU in proliferating medium and incubated for 24 h at 37 °C. Next, iAMs were fixed with 4% PFA for 30 min at 4 °C. Cells were washed thrice with PBS, permeabilized by incubation with 0.1% Triton X-100 for 10 min at RT and counterstained with DAPI. Images were obtained by fluorescence microscopy (Celena S).

Test [2] concerns HCFs. Description: RT-qPCR on signaling pathway genes in HCFs. To be noted: single replicates. In kind it is cell-based, human. The protocol:
RNA was extracted using Nucleospin RNA XS (Macherey-Nagel, 740902.50) according to the manufacturer’s instructions. For cDNA synthesis, total RNA was added to a mixture containing buffer with random hexamers and reverse transcriptase enzyme (TaqMan reverse transcription reagents, Applied biosystems, N8080234) after which samples were incubated for 10 min at 25 °C, 30 min at 48 °C, and 5 min at 95 °C. RT-qPCR was performed on QuantStudio 3 Real-time PCR system (Applied Biosystems) using Taqman Universal PCR Master Mix (Applied Biosystems, 4304437) and Taqman primers according to the manufacturer’s instructions. Settings were as follows: […] followed by 10 min at 95 °C, 40 cycles (45 cycles for ERBB4) of denaturation at 95 °C for 15 s, and 1 min at 60 °C. All reactions were run in duplicate, and all data were normalized against housekeeping genes glyceraldehyde-3-phosphate dehydrogenase (GAPDH), beta-actin (ACTB), or phosphoglycerate kinase 1 (PGK1). Expression levels were calculated using the comparative cycle method and expressed as fold change (FC) to appropriate controls. The following TaqMan primers were used (Thermo Fisher Scientific): GAPDH (Hs02758991_g1, Mm99999915_g1 and Rn01775763_g1), PGK1 (Hs99999906_m1), ID2 (Hs04187239_m1), BMPR1B (Hs01010965_m1), CACNA2D4 (Hs00297782_m1), DUSP2 (Hs00358879_m1), NR4A1 (Hs00374226_m1), SGK1 (Hs00178612_m1), COL1A1 (Mm00801666_g1), COL3A1 (Hs00943809_m1 and Mm00802305_g1), ERBB4 (Hs00955525_m1 and Rn00572447_m1), ACTB (Mm02619580_g1) and ANP (Mm01255747_g1).

The target in test [3] is T1, ERBB4 receptor (Homo sapiens, UniProt Q15303).
T1 construct: host or cells: U2OS (osteosarcoma cells), PathHunter engineered line
Description: Fluorescence-based competition binding assay with F-NRG1 (flow cytometry) on U2OS ERBB4/ERBB4 cells. As to conditions: for Fluorescence-based competition assay with NRG1 and EF-1 (normalized signal): individual replicates. The protocol: NRG1 was dissolved in PBS at a concentration of 1 mg/mL and labeled with Alexa Fluor 488 using the Alexa Fluor 488 microscale protein labeling kit (Thermo Fisher Scientific, A30006). A Bio-gel P-4 (Bio-Rad, 1504124) fine resin suspended in PBS and a dye:protein molar ratio of 5 was used to purify the labeled NRG1 according to the manufacturer’s instructions. Fluorescent labeling was evaluated by performing a dose-response experiment using F-NRG1 (1–1000 nM) on the U2OS ERBB4/ERBB4 dimerization cell line. Next, the same cell line was used to perform a competition binding assay with F-NRG1 using flow cytometry. Cells were plated in transparent U-bottom 96-well plates (Greiner Bio-One, M9436) at 5 × 10^5 cells/mL in 50 μL ice-cold buffer (PBS with 0.1% bovine serum albumin (BSA; Sigma-Aldrich, A7906) and 0.05% sodium azide (Sigma-Aldrich, S2002)). Next, cells were centrifuged at 17,968 × g for 4 min at RT and the supernatants were discarded. The cell pellets were washed with 50 μL ice-cold buffer by gently pipetting up and down. Centrifugation and washing were repeated, and the supernatants were discarded. For the competition assay between NRG1 and F-NRG1, cells were treated with NRG1 (1–100 nM) and F-NRG1 (30 nM). […] After gentle mixing of each sample, the plate was incubated for 1 h at 4 °C on a microplate shaker. Next, the plate was centrifuged at 17,968 × g for 4 min at RT and the supernatants were discarded. The cells were then washed with 100 μL ice-cold buffer, pelleted by centrifugation and washed again. The supernatants were discarded and 100 μL ice-cold buffer was added to the cell pellets and pipetted up and down to generate single-cell suspensions. These suspensions were transferred to 5-mL polystyrene round-bottom tubes, kept on ice, and exposed to minimum light until flow cytometric analysis (BD Accuri C6, BD Biosciences). Unstained cells were used to set the parameters of the flow cytometer.
Supplementary Figure 3. Receptor binding assay. (a) Fluorescence-based competition assay between […]
The Y-axis represents the […]
percentage of specific binding of F-NRG1, the x-axis represents the molar concentration of unlabeled […]
(b) DRC showing t he effect of NRG1 (full line with full circle) on the […]
1x10-6 M NRG1; n=5 biological replicates for NRG1 + EF -1 10 µM for all concentrations of NRG1, except […]
concentrations of NRG1, except n=2 for 3x10-7 M and 1x10-6 M NRG1). All data are presented as mean ± SD. Source data are provided as a Source Data file . CPD, compound; DRC; dose response curve; FC, fold change; F-NRG1, fluorescent ly labeled NRG1; M, molar concentration; NRG1, neuregulin-1; Veh, […]

T1 sequence (Q15303 26-1308): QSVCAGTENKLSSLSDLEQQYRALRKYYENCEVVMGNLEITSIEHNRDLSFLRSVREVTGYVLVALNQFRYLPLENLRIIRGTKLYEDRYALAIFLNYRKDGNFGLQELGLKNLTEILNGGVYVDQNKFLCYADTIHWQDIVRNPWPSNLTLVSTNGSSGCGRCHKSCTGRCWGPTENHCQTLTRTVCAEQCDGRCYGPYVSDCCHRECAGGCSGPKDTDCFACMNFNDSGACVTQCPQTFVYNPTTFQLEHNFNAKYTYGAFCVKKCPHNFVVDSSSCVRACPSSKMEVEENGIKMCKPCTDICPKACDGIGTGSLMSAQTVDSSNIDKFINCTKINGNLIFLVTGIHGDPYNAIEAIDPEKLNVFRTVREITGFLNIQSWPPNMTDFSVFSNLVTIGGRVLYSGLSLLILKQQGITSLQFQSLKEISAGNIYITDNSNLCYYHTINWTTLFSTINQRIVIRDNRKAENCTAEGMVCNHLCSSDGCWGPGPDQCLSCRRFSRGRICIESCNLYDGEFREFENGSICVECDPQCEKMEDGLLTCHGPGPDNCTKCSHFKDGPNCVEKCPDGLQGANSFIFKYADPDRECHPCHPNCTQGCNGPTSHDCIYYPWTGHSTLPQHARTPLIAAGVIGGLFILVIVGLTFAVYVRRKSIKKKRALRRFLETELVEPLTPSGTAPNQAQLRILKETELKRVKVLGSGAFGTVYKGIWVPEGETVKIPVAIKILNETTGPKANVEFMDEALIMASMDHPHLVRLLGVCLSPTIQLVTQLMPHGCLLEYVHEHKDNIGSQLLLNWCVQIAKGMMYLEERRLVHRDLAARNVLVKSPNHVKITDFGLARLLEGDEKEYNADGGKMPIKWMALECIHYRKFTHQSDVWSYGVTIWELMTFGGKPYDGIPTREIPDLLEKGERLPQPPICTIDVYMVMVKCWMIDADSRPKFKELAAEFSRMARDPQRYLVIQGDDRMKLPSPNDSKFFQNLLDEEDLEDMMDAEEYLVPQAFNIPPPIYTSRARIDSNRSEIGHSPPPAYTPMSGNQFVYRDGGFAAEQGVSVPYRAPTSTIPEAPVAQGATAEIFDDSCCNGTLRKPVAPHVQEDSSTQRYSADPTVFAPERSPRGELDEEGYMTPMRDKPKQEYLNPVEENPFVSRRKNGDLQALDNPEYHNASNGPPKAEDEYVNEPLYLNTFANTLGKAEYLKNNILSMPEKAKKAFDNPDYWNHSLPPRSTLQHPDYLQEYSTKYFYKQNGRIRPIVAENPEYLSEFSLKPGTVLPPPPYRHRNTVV
T1 sequence (Q15303 26-1308): as above

Take neuregulin-1 [NRG1]: the “EdU-positive nuclei compared to the vehicle group (in words)” value in test [1] is listed as “significant decrease in EdU-positive nuclei”. Moreover, the “In vitro EdU-positive cell count” value in test [1] was 0.7207 and 0.8932 and 0.8227 and 0.7581 and 0.7231. The “BMPR1B mRNA, normalized FC compared to vehicle” value in test [2] was 0.8467 and 0.8788 and 0.6722 and 0.547. Further, the “CACNA2D4 mRNA, normalized FC compared to vehicle” value in test [2] is 0.587 and 0.7244 and 0.5309 and 0.2575. Moreover, the “DUSP2 mRNA, normalized FC compared to vehicle” value in test [2] is 0.9928 and 0.6481 and 0.6778 and 0.7386. Further, the “ID2 mRNA, normalized FC compared to vehicle” value in test [2] was 0.8573 and 0.8679 and 0.8306 and 0.7992. Also, the “NR4A1 mRNA, normalized FC compared to vehicle” value in test [2] was 0.5297 and 0.9275 and 0.7063 and 0.8111. Besides, the “SGK1 mRNA, normalized FC compared to vehicle” value in test [2] is 0.7797 and 0.9219 and 0.8239 and 0.6521. Further, the IC50 in test [3] (30 nM F-NRG1, U2OS ERBB4/ERBB4 cells, read-out: IC50, reduction of binding of fluorescent NRG1 (F-NRG1) to the ERBB4 receptor) came out at 32 nM. For the same molecule, the “Fluorescence-based competition assay with NRG1 and EF-1 (normalized signal)” value in test [3] (concentration 100 pM) is 100; in test [3] (concentration 1e-9 M) it was 68.5222 and 84.1596 and 93.8458 and 74.5974 and 128.088 and 100; in test [3] (concentration 3e-9 M) it was 80.2455 and 83.5978 and 102.302 and 89.9396 and 83.9805 and 87.652; in test [3] (concentration 1e-8 M), 67.9682 and 69.1706 and 85.6667 and 81.6967; in test [3] (concentration 3e-8 M) it was 77.0259 and 43.4293 and 100.206 and 81.3756 and 87.2588 and 82.6252 and 67.1018 and 62.6829 and 44.3344 and 108.803; in test [3] (concentration 5e-8 M), 65.1587 and 61.7658 and 51.2875 and 66.8315. Moreover, the “Fluorescence-based competition assay with NRG1 and EF-1 (normalized signal)” value in test [3] (concentration 7.5e-8 M) is 7.1162 and 78.7156 and 54.3916 and 66.0513 and 10.1361 and 60.285 and -8.7833 and 64.1512; in test [3] (concentration 9e-8 M) it was 47.1877 and 5.376 and 43.6793; in test [3] (concentration 1e-7 M), 0.
On to `O=C(NC1CC1)C(Sc1nc2ccccc2c(=O)n1C1CCCC1)c1ccccc1` (centres unmarked) [EF-1], for which, in test [1], the “EdU-positive nuclei compared to the vehicle group (in words)” value is reported as “significant decrease in EdU-positive nuclei”; the “In vitro EdU-positive cell count” value is 0.7127 and 0.7822 and 0.8185 and 0.7982 and 0.7621. In test [2], the “BMPR1B mRNA, normalized FC compared to vehicle” value is 0.7674 and 0.7715 and 0.7478 and 0.6131; the “CACNA2D4 mRNA, normalized FC compared to vehicle” value was 0.6726 and 0.5139 and 0.5641 and 0.6199; the “DUSP2 mRNA, normalized FC compared to vehicle” value was 0.652 and 0.6672 and 0.8266 and 0.7945; the “ID2 mRNA, normalized FC compared to vehicle” value was 0.7995 and 0.6935 and 0.711 and 0.7833. In addition, in test [2], the “NR4A1 mRNA, normalized FC compared to vehicle” value is 0.6281 and 0.8412 and 0.7864 and 0.7806; the “SGK1 mRNA, normalized FC compared to vehicle” value was 0.5165 and 0.6795 and 0.6992 and 0.5618. Further, in test [3] (EF-1 0.1–100 μM, 30 nM F-NRG1), the “competition with F-NRG1 binding (in words)” value is “did not reduce binding of F-NRG1”. Also, in test [3] (concentration 100 pM), the “Fluorescence-based competition assay with NRG1 and EF-1 (normalized signal)” value is 100. Moreover, the “Fluorescence-based competition assay with NRG1 and EF-1 (normalized signal)” value in test [3] (concentration 1e-7 M) is 100 and 98 and 104. Moreover, the “Fluorescence-based competition assay with NRG1 and EF-1 (normalized signal)” value in test [3] (concentration 1e-6 M) is 102 and 93 and 105. Also, the “Fluorescence-based competition assay with NRG1 and EF-1 (normalized signal)” value in test [3] (concentration 1e-5 M) was 98 (2×) and 92. Further, the “Fluorescence-based competition assay with NRG1 and EF-1 (normalized signal)” value in test [3] (concentration 0.0001 M) is 94 (2×) and 95.

The values above are taken from publication PMC11724075, “Small-molecule-induced ERBB4 activation to treat heart failure” (Nature Communications, 2025).
